Reference: patent publication US20220160650A1, “GEL, OINTMENT, AND FOAM FORMULATIONS OF TAPINAROF AND METHODS OF USE” (Dermavant Sciences GmbH, priority 2020, published 2022)

Key:
[1] = Gao et al., Journal of Polymer Research 2011; cited from earlier work
[2] = Purity of tapinarof in individual excipients on storage, related substances HPLC method; format: physicochemical
Procedure, shortened: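 The stability of the stilbene active ingredient was tested in individual excipients, one excipient per sample. Samples were analysed at time zero and after storage for up to 2 weeks. Purity of the active ingredient was determined by HPLC.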

[3] = Saturated solubility of tapinarof in individual excipients, by tapinarof assay HPLC or visually (Table 2); format: physicochemical; details: for Average saturated solubility of DMVT-505: visual solubility
Procedure, shortened: (§1)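 Each sample held one pharmaceutical excipient, and the saturated solubility of the stilbene active ingredient was determined in each of these excipients. The values give that active ingredient's solubility in the respective excipient, obtained by visual inspection or by an HPLC assay for the active ingredient.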

[4] = Tapinarof saturated solubility in excipients (Table 1); format: physicochemical
Procedure, shortened: as §1

In the case of CC(C)c1c(O)cc(/C=C/c2ccccc2)cc1O [tapinarof, 3,5-Dihydroxy-4-isopropyl-trans-stilbene], the “Sensitivity to oxidation and photo degradation” value [1] is given as “sensitive to oxidation and photo degradation”, the “Purity of DMVT-505” value ([2]; in Almond oil, t = 0) is given as 100.00 % area and the “Purity of DMVT-505” value ([2]; in Almond oil, t = 2 weeks, 40° C.) is given as 99.96 % area. The “Purity of DMVT-505” value ([2]; in Almond oil, t = 2 weeks, 70° C.) was 99.84 % area, the “Purity of DMVT-505” value ([2]; in Arlasolve DMI, t = 0) was 99.55 % area and the “Purity of DMVT-505” value ([2]; in Arlasolve DMI, t = 2 weeks, 40° C.) was 96.75 % area. The “Purity of DMVT-505” value ([2]; in Arlasolve DMI, t = 2 weeks, 70° C.) was 95.14 % area, the “Purity of DMVT-505” value ([2]; in Castor oil, t = 0) was 100.00 % area and the “Purity of DMVT-505” value ([2]; in Castor oil, t = 2 weeks, 40° C.) was 100.00 % area. For the same compound, the “Purity of DMVT-505” value ([2]; in Castor oil, t = 2 weeks, 70° C.) was 99.92 % area, the “Purity of DMVT-505” value ([2]; in Crodamol GTCC, t = 0) was 99.92 % area and the “Purity of DMVT-505” value ([2]; in Crodamol GTCC, t = 2 weeks, 40° C.) was 96.46 % area. For the same compound, the “Purity of DMVT-505” value ([2]; in Crodamol GTCC, t = 2 weeks, 70° C.) was 96.94 % area, the “Purity of DMVT-505” value ([2]; in Diethyl sebacate, t = 0) was 100.00 % area and the “Purity of DMVT-505” value ([2]; in Diethyl sebacate, t = 2 weeks, 40° C.) was 96.72 % area. The “Purity of DMVT-505” value ([2]; in Diethyl sebacate, t = 2 weeks, 70° C.) was 95.78 % area, the “Purity of DMVT-505” value ([2]; in Diisopropyl adipate, t = 0) was 100.00 % area and the “Purity of DMVT-505” value ([2]; in Diisopropyl adipate, t = 2 weeks, 40° C.) was 99.79 % area. The “Purity of DMVT-505” value ([2]; in Diisopropyl adipate, t = 2 weeks, 70° C.) was 95.94 % area, the “Purity of DMVT-505” value ([2]; in Dipropylene glycol, t = 0) was 99.97 % area and the “Purity of DMVT-505” value ([2]; in Dipropylene glycol, t = 2 weeks, 40° C.) was 99.83 % area. The “Purity of DMVT-505” value ([2]; in Dipropylene glycol, t = 2 weeks, 70° C.) was 98.89 % area, the “Purity of DMVT-505” value ([2]; in Ethanol, t = 0) was 99.89 % area and the “Purity of DMVT-505” value ([2]; in Ethanol, t = 2 weeks, 40° C.) was 99.72 % area. The “Purity of DMVT-505” value ([2]; in Ethanol, t = 2 weeks, 70° C.) was 98.57 % area, the “Purity of DMVT-505” value ([2]; in Hexylene glycol, t = 0) was 99.96 % area and the “Purity of DMVT-505” value ([2]; in Hexylene glycol, t = 2 weeks, 40° C.) was 99.54 % area. The “Purity of DMVT-505” value ([2]; in Hexylene glycol, t = 2 weeks, 70° C.) was 98.76 % area, the “Purity of DMVT-505” value ([2]; in IPA, t = 0) was 99.91 % area and the “Purity of DMVT-505” value ([2]; in IPA, t = 2 weeks, 40° C.) was 99.86 % area. The “Purity of DMVT-505” value ([2]; in IPA, t = 2 weeks, 70° C.) was 99.25 % area, the “Purity of DMVT-505” value ([2]; in IPM, t = 0) was 100.00 % area and the “Purity of DMVT-505” value ([2]; in IPM, t = 2 weeks, 40° C.) was 99.32 % area. For the same compound, the “Purity of DMVT-505” value ([2]; in IPM, t = 2 weeks, 70° C.) was 92.15 % area, the “Purity of DMVT-505” value ([2]; in IPP, t = 0) was 100.00 % area and the “Purity of DMVT-505” value ([2]; in IPP, t = 2 weeks, 40° C.) was 99.30 % area. For the same compound, the “Purity of DMVT-505” value ([2]; in IPP, t = 2 weeks, 70° C.) was 99.52 % area, the “Purity of DMVT-505” value ([2]; in Jojoba oil, t = 0) was 99.97 % area and the “Purity of DMVT-505” value ([2]; in Jojoba oil, t = 2 weeks, 40° C.) was 98.98 % area. For the same compound, the “Purity of DMVT-505” value ([2]; in Jojoba oil, t = 2 weeks, 70° C.) was 99.09 % area, the “Purity of DMVT-505” value ([2]; in Kollicream ® 3C, t = 0) was 100.00 % area and the “Purity of DMVT-505” value ([2]; in Kollicream ® 3C, t = 2 weeks, 40° C.) was 98.98 % area. The “Purity of DMVT-505” value ([2]; in Kollicream ® 3C, t = 2 weeks, 70° C.) was 96.51 % area, the “Purity of DMVT-505” value ([2]; in Kollicream ® OA, t = 0) was 100.00 % area and the “Purity of DMVT-505” value ([2]; in Kollicream ® OA, t = 2 weeks, 40° C.) was 99.66 % area. The “Purity of DMVT-505” value ([2]; in Kollicream ® OA, t = 2 weeks, 70° C.) was 99.46 % area, the “Purity of DMVT-505” value ([2]; in Kollicream ® OD, t = 0) was 100.00 % area and the “Purity of DMVT-505” value ([2]; in Kollicream ® OD, t = 2 weeks, 40° C.) was 99.38 % area. The “Purity of DMVT-505” value ([2]; in Kollicream ® OD, t = 2 weeks, 70° C.) was 98.11 % area, the “Purity of DMVT-505” value ([2]; in MethoxyPEG 350, t = 0) was 99.59 % area and the “Purity of DMVT-505” value ([2]; in MethoxyPEG 350, t = 2 weeks, 40° C.) was 98.42 % area. For the same compound, the “Purity of DMVT-505” value ([2]; in MethoxyPEG 350, t = 2 weeks, 70° C.) was 95.50 % area, the “Purity of DMVT-505” value ([2]; in Olive oil, t = 0) was 100.00 % area and the “Purity of DMVT-505” value ([2]; in Olive oil, t = 2 weeks, 40° C.) was 99.91 % area. For the same compound, the “Purity of DMVT-505” value ([2]; in Olive oil, t = 2 weeks, 70° C.) was 99.74 % area, the “Purity of DMVT-505” value ([2]; in PEG 200, t = 0) was 99.91 % area and the “Purity of DMVT-505” value ([2]; in PEG 200, t = 2 weeks, 40° C.) was 99.86 % area. For the same compound, the “Purity of DMVT-505” value ([2]; in PEG 200, t = 2 weeks, 70° C.) was 98.56 % area, the “Purity of DMVT-505” value ([2]; in PEG 400, t = 0) was 99.87 % area and the “Purity of DMVT-505” value ([2]; in PEG 400, t = 2 weeks, 40° C.) was 99.30 % area. The “Purity of DMVT-505” value ([2]; in PEG 400, t = 2 weeks, 70° C.) was 98.63 % area, the “Purity of DMVT-505” value ([2]; in Propylene glycol, t = 0) was 99.90 % area and the “Purity of DMVT-505” value ([2]; in Propylene glycol, t = 2 weeks, 40° C.) was 99.51 % area. The “Purity of DMVT-505” value ([2]; in Propylene glycol, t = 2 weeks, 70° C.) was 99.23 % area, the “Purity of DMVT-505” value ([2]; in Sesame oil, t = 0) was 100.00 % area and the “Purity of DMVT-505” value ([2]; in Sesame oil, t = 2 weeks, 40° C.) was 99.94 % area. For the same compound, the “Purity of DMVT-505” value ([2]; in Sesame oil, t = 2 weeks, 70° C.) was 99.67 % area, the “Purity of DMVT-505” value ([2]; in Sorbitan monooleate (Span 80), t = 0) was 100.00 % area and the “Purity of DMVT-505” value ([2]; in Sorbitan monooleate (Span 80), t = 2 weeks, 40° C.) was 100.00 % area. The “Purity of DMVT-505” value ([2]; in Sorbitan monooleate (Span 80), t = 2 weeks, 70° C.) was 99.79 % area, the “Purity of DMVT-505” value ([2]; in Sunflower oil, t = 0) was 100.00 % area and the “Purity of DMVT-505” value ([2]; in Sunflower oil, t = 2 weeks, 40° C.) was 100.00 % area. For the same compound, the “Purity of DMVT-505” value ([2]; in Sunflower oil, t = 2 weeks, 70° C.) was 99.51 % area, the “Average saturated solubility of DMVT-505 (mean of n = 3)” value ([3]; in Almond oil) was 11.94 % w/w and the “Average saturated solubility of DMVT-505 (mean of n = 3)” value ([3]; in Aloe vera juice) was 0.01 % w/w. The “Average saturated solubility of DMVT-505 (mean of n = 3)” value ([3]; in Castor oil) was 7.06 % w/w, the “Average saturated solubility of DMVT-505” value ([3]; in Dipropylene glycol) was ≥20 (visual solubility) % w/w and the “Average saturated solubility of DMVT-505” value ([3]; in Ethanol) was ≥20 (visual solubility) % w/w. The “Average saturated solubility of DMVT-505” value ([3]; in Isopropyl myristate) was ≥20 (visual solubility) % w/w, the “Average saturated solubility of DMVT-505 (mean of n = 3)” value ([3]; in Jojoba oil) was 8.19 % w/w and the “Average saturated solubility of DMVT-505 (mean of n = 3)” value ([3]; in Kollicream ® 3C (cocoyl caprylocaprate)) was 19.03 % w/w. For the same compound, the “Average saturated solubility of DMVT-505 (mean of n = 3)” value ([3]; in Kollicream ® OA (oleyl alcohol)) was 15.82 % w/w, the “Average saturated solubility of DMVT-505 (mean of n = 3)” value ([3]; in Kollicream ® OD (octyldodecanol)) was 11.03 % w/w and the “Average saturated solubility of DMVT-505” value ([3]; in MethoxyPEG 350) was ≥20 (visual solubility) % w/w. For the same compound, the “Average saturated solubility of DMVT-505 (mean of n = 3)” value ([3]; in Olive oil) was 11.35 % w/w, the “Average saturated solubility of DMVT-505” value ([3]; in PEG 200) was ≥20% (visual solubility) % w/w and the “Average saturated solubility of DMVT-505 (mean of n = 3)” value ([3]; in Safflower oil) was 11.68 % w/w. For the same compound, the “Average saturated solubility of DMVT-505 (mean of n = 3)” value ([3]; in Sesame oil) was 11.56 % w/w, the “Average saturated solubility of DMVT-505 (mean of n = 3)” value ([3]; in Soyabean oil) was 11.68 % w/w and the “Average saturated solubility of DMVT-505 (mean of n = 3)” value ([3]; in Sunflower oil) was 12.05 % w/w. For the same compound, the “Average saturated solubility of DMVT-505 (mean of n = 3)” value ([3]; in Walnut oil) was 12.43 % w/w, the “Solubility (tapinarof saturated solubility)” value ([4]; in Benzyl alcohol) was 193 mg/g and the “Solubility (tapinarof saturated solubility)” value ([4]; in Diethyl sebacate) was 488 mg/g. The “Solubility (tapinarof saturated solubility)” value ([4]; in Diisopropyl adipate) was 187 mg/g, the “Solubility (tapinarof saturated solubility)” value ([4]; in Dimethyl isosorbide) was 496 mg/g and the “Solubility (tapinarof saturated solubility)” value ([4]; in Glycerol) was 14 mg/g. For the same compound, the “Solubility (tapinarof saturated solubility)” value ([4]; in Hexylene glycol) was 386 mg/g, the “Solubility (tapinarof saturated solubility)” value ([4]; in Isopropyl alcohol) was 485 mg/g and the “Solubility (tapinarof saturated solubility)” value ([4]; in Isopropyl palmitate) was 231 mg/g. For the same compound, the “Solubility (tapinarof saturated solubility)” value ([4]; in Medium chain triglycerides) was 273 mg/g, the “Solubility (tapinarof saturated solubility)” value ([4]; in Mineral oil) was 0.26 mg/g and the “Solubility (tapinarof saturated solubility)” value ([4]; in Phenoxyethanol) was 381 mg/g. For the same compound, the “Solubility (tapinarof saturated solubility)” value ([4]; in Polyethylene glycol 400) was 373 mg/g, the “Solubility (tapinarof saturated solubility)” value ([4]; in Polysorbate 80) was 263 mg/g and the “Solubility (tapinarof saturated solubility)” value ([4]; in Propylene carbonate) was 506 mg/g. The “Solubility (tapinarof saturated solubility)” value ([4]; in Propylene glycol) was 444 mg/g, the “Solubility (tapinarof saturated solubility)” value ([4]; in Sorbitan oleate) was 137 mg/g and the “Solubility (tapinarof saturated solubility)” value ([4]; in Water) was 0.14 mg/g. For the same compound, the “Solubility (tapinarof saturated solubility)” value ([4]; in diethylene glycol monoethyl ether (DEGEE)) was 526 mg/g.
